Assay results published in US20140221374A1, “RAF KINASE INHIBITORS” (Ruga Corporation, priority 2011, published 2014).

How the values were obtained:
V600E-mutated B-RAF = V600E-mutated B-RAF (Homo sapiens, UniProt P15056, V600E); experiment: In vitro assay for inhibition of mutant B-RAF kinase (recombinant V600E-mutated B-RAF, MEK (K97R) substrate); format: biochemical; details: 10 nM recombinant V600E-mutated B-RAF
Procedure: (§1) The ability of compounds described herein to inhibit RAF kinase activity were determined from biochemical kinase inhibition assays using recombinant RAF proteins as known in the art.
Solutions of varying concentrations of test compounds or vehicle were added to 10 nM recombinant V600E-mutated B-RAF proteins incubated in the presence of different concentrations of ATP and […] (K97R) as substrate, as previously described (Wilhelm, S. M., et al., Cancer Res., 64: 7099-7109, 2004; Mason, C. S., et al.; EMBO J. 18: 2137-2.148, 1999; Marais, R., et al., J. Biol. Chem., 272: 4378-4383, 1997). At least triplicate determinations for each individual test compound concentration were made and data plotted as mean±standard deviation relative to the control vehicle.

wild-type C-RAF = wild-type C-RAF (Homo sapiens, UniProt P04049); experiment: In vitro assay for inhibition of RAF kinases (recombinant wild-type C-RAF, MEK (K97R) substrate); format: biochemical; details: 10 nM recombinant wild-type C-RAF
wild-type C-RAF, sequence (P04049 whole entry): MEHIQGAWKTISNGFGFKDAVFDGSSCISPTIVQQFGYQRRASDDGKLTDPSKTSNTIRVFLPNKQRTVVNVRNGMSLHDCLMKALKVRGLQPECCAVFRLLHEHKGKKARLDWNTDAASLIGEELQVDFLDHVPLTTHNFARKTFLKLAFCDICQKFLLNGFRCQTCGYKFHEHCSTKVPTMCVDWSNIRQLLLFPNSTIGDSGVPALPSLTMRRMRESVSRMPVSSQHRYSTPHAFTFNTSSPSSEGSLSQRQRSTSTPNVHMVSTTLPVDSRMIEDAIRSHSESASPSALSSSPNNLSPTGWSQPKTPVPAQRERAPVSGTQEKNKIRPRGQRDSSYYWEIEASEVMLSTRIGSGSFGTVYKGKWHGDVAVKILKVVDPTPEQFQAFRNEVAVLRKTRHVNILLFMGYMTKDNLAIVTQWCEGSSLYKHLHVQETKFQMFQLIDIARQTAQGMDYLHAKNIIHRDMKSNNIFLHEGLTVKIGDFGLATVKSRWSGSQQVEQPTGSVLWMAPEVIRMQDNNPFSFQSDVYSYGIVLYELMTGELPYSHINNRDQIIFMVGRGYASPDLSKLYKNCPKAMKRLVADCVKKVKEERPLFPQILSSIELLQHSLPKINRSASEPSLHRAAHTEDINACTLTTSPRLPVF
Procedure: as §1
Solutions of varying concentrations of test compounds or vehicle were added to 10 nM recombinant wild-type A-RAF, wild-type B-RAF, or wild-type C-RAF proteins incubated in the presence of different concentrations of ATP and 1 μM MEK (K97R) as substrate, as previously described (Wilhelm, S. M., et al., Cancer Res., 64: 7099-7109, 2004; Mason, C S., et al., EMBO J. 18: 2137-2148, 1999; Marais, R., et al., J. Biol. Chem., 272: 4378-4383, 1997). At least triplicate determinations for each individual test compound concentration were made and data plotted as mean±standard deviation relative to the control vehicle.

[1] = system: A375 cells (V600E activated B-RAF); experiment: In vitro tumor cell growth inhibition, MTT, 72 hours; format: cell-based; details: Homo sapiens, A-375, 72 hours incubation
Procedure: Briefly, growth inhibition of cells containing V600E activated B-RAF (A375, Colo205) versus cell lines with wild-type B-RAF (A431) were measured under anchorage-dependent conditions using MTT (3-(4,5-dimethylthiazol-2-yl)-2,5-diphenyltetrazolium bromide), following 72 hours incubation with either compound or vehicle, as previously described (Haass, N. K., et al., Clinical Cancer Res., 14: 230-239, 2008): Cell lines are obtained from the American Type Tissue Culture Collection (Maryland, USA) and cultured in media containing heat-inactivated 10% fetal bovine serum. Cell cultures were also maintained in 10 U/mL, penicillin, 100 μg/mL streptomycin and 2 mM glutamine. At least triplicate determinations for each individual test compound concentration were made and data plotted as mean±standard deviation relative to the control vehicle.

V600E-mutated B-RAF, sequence (P15056 whole entry V600E): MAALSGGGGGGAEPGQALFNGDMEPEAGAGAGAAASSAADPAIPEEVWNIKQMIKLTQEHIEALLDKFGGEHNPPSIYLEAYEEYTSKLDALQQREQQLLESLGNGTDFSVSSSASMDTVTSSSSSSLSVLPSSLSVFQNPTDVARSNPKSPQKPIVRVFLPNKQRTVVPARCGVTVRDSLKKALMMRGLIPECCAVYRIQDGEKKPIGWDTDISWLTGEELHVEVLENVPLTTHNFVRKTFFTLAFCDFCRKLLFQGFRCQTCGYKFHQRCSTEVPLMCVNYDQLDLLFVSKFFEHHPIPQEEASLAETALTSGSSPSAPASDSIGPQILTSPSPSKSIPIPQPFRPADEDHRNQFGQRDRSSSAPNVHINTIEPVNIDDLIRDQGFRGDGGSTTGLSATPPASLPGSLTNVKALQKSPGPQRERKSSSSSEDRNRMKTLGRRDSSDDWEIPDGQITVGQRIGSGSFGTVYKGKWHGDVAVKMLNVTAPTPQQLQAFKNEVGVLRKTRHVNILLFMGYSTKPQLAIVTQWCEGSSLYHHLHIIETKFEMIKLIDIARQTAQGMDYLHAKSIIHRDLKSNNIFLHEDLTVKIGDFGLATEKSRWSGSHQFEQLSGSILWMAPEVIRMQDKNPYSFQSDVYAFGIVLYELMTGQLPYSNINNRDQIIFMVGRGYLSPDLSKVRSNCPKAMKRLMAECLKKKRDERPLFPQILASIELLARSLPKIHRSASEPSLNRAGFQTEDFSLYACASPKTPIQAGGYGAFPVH

Row | SMILES | IC50 (V600E-mutated B-RAF) | IC50 (wild-type C-RAF) | IC50 [1]
1 | Cc1ccc(NC(=O)Nc2cccc(-c3sc(C)nc3-c3ccncc3)c2)cc1 [Example 1, 1-[3-(2-Methyl-4-pyridin-4-yl-thiazol-5-yl)-phenyl]-3-p-tolyl-urea] | ≤ 0.1 µM | 1 to 10 µM | > 10 µM
2 | Cc1ccc(NC(=O)Nc2cc(-c3sc(C)nc3-c3ccncc3)ccc2F)cc1 [Example 7, 1-(2-fluoro-5-(2-methyl-4-(pyridin-4-yl)thiazol-5-yl)phenyl)-3-p-tolylurea] | ≤ 0.1 µM | 0.1 to 1 µM | 1 to 10 µM
3 | Cc1ccc(NC(=O)Nc2cccc(-c3sc(C)nc3-c3ccnc(N)c3)c2)cc1 [Example 20, 1-(3-(4-(2-aminopyridin-4-yl)-2-methylthiazol-5-yl)phenyl)-3-p-tolylurea] | ≤ 0.1 µM | – | 1 to 10 µM
4 | Cc1nc(-c2ccnc(N)c2)c(-c2cccc(NC(=O)Nc3ccc(Cl)cc3)c2)s1 [Example 21, 1-(3-(4-(2-aminopyridin-4-yl)-2-methylthiazol-5-yl)phenyl)-3-(4-chlorophenyl)urea] | ≤ 0.1 µM | – | 1 to 10 µM
5 | Cc1nc(-c2ccnc(N)c2)c(-c2ccc(F)c(NC(=O)Nc3ccc(Cl)cc3)c2)s1 [Example 22, 1-(5-(4-(2-aminopyridin-4-yl)-2-methylthiazol-5-yl)-2-fluorophenyl)-3-(4-chlorophenyl)urea] | ≤ 0.1 µM | – | 1 to 10 µM
6 | Cc1nc(-c2ccnc(N)c2)c(-c2cccc(NC(=O)Nc3ccc(C(F)(F)F)cc3)c2F)s1 [Example 24, 1-(3-(4-(2-aminopyridin-4-yl)-2-methylthiazol-5-yl)-2-fluorophenyl)-3-(4-(trifluoromethyl)phenyl)urea] | 0.1 to 1 µM | – | 0.1 to 1 µM
7 | Cc1nc(-c2ccnc(N)c2)c(-c2cc(NC(=O)Nc3ccc(C(F)(F)F)cc3)c(F)cc2F)s1 [Example 25, 1-(5-(4-(2-aminopyridin-4-yl)-2-methylthiazol-5-yl)-2,4-difluorophenyl)-3-(4-(trifluoromethyl)phenyl)urea] | ≤ 0.1 µM | – | 1 to 10 µM
8 | Cc1nc(-c2ccnc(N)c2)c(-c2cccc(NC(=O)Nc3ccc(C(F)(F)F)cc3)c2)s1 [Example 26, 1-(3-(4-(2-aminopyridin-4-yl)-2-methylthiazol-5-yl)phenyl)-3-(4-(trifluoromethyl)phenyl)urea] | ≤ 0.1 µM | – | > 10 µM
9 | O=C(Nc1ccc(Cl)cc1)Nc1cccc(-c2sc(N3CCOCC3)nc2-c2ccncc2)c1 [Example 33, 1-(4-chlorophenyl)-3-(3-(2-morpholino-4-(pyridin-4-yl)thiazol-5-yl)phenyl)urea] | ≤ 0.1 µM | – | 1 to 10 µM
10 | O=C(Nc1ccc(Cl)cc1)Nc1cccc(-c2sc(NCCN3CCOCC3)nc2-c2ccncc2)c1 [Example 34, 1-(4-chlorophenyl)-3-(3-(2-(2-morpholinoethylamino)-4-(pyridin-4-yl)thiazol-5-yl)phenyl)urea] | ≤ 0.1 µM | – | 1 to 10 µM
11 | O=C(Nc1ccc(C(F)(F)F)cc1)Nc1cc(-c2sc(NCCN3CCOCC3)nc2-c2ccncc2)ccc1F [Example 35, 1-(2-fluoro-5-(2-(2-morpholinoethylamino)-4-(pyridin-4-yl)thiazol-5-yl)phenyl)-3-(4-(trifluoromethyl)phenyl)urea] | ≤ 0.1 µM | – | 0.1 to 1 µM
12 | O=C(Nc1ccc(C(F)(F)F)cc1)Nc1cccc(-c2sc(NCCN3CCOCC3)nc2-c2ccncc2)c1 [Example 37, 1-(3-(2-(2-morpholinoethylamino)-4-(pyridin-4-yl)thiazol-5-yl)phenyl)-3-(4-(trifluoromethyl)phenyl)urea] | ≤ 0.1 µM | – | 1 to 10 µM
13 | Cc1nc(-c2ccncc2)c(-c2cccc(NS(=O)(=O)c3cc(F)ccc3F)c2)s1 [Example 41, 2,5-Difluoro-N-[3-(2-methyl-4-pyridin-4-yl-thiazol-5-yl)-phenyl]-benzenesulfonamide] | ≤ 0.1 µM | – | 1 to 10 µM
14 | Cc1ccc(NC(=O)Cc2cccc(-c3sc(C)nc3-c3ccncc3)c2)cc1 [Example 47, 2-(3-(2-methyl-4-(pyridin-4-yl)thiazol-5-yl)phenyl)-N-p-tolylacetamide] | ≤ 0.1 µM | – | > 10 µM
15 | CCn1cc(-c2ccc(F)c(NC(=O)Nc3ccc(Cl)cc3)c2)c(-c2ccncc2)n1 [Example 48, 1-(4-chlorophenyl)-3-(5-(1-ethyl-3-(pyridin-4-yl)-1H-pyrazol-4-yl)-2-fluorophenyl)urea] | ≤ 0.1 µM | – | 1 to 10 µM
16 | CCn1cc(-c2cccc(NC(=O)Nc3ccc(Cl)cc3)c2F)c(-c2ccncc2)n1 [Example 49, 1-(4-chlorophenyl)-3-(3-(1-ethyl-3-(pyridin-4-yl)-1H-pyrazol-4-yl)-2-fluorophenyl)urea] | ≤ 0.1 µM | – | 0.1 to 1 µM
17 | CCn1cc(-c2cccc(NC(=O)Nc3ccc(C(F)(F)F)cc3)c2F)c(-c2ccncc2)n1 [Example 50, 1-(3-(1-ethyl-3-(pyridin-4-yl)-1H-pyrazol-4-yl)-2-fluorophenyl)-3-(4-(trifluoromethyl)phenyl)urea] | ≤ 0.1 µM | 1 to 10 µM | 0.1 to 1 µM
18 | CCn1cc(-c2cccc(NC(=O)Nc3ccc(S(C)(=O)=O)cc3)c2)c(-c2ccncc2)n1 [Example 51, 1-(3-(1-ethyl-3-(pyridin-4-yl)-1H-pyrazol-4-yl)phenyl)-3-(4-(methylsulfonyl)phenyl)urea] | ≤ 0.1 µM | – | 1 to 10 µM
19 | CCn1cc(-c2cccc(NC(=O)Nc3ccc(C(F)(F)F)cc3)c2)c(-c2ccncc2)n1 [Example 52, 1-(3-(1-ethyl-3-(pyridin-4-yl)-1H-pyrazol-4-yl)phenyl)-3-(4-(trifluoromethyl)phenyl)urea] | ≤ 0.1 µM | 0.1 to 1 µM | ≤ 0.1 µM
20 | CCn1cc(-c2cccc(N3CCN(c4ccc(C(F)(F)F)cc4)C3=O)c2)c(-c2ccncc2)n1 [Example 53, 1-(3-(1-ethyl-3-(pyridin-4-yl)-1H-pyrazol-4-yl)phenyl)-3-(4-(trifluoromethyl)phenyl)imidazolidin-2-one] | ≤ 0.1 µM | – | 1 to 10 µM
21 | CCn1cc(-c2cccc(NC(=O)Nc3ccc(S(=O)(=O)CC)cc3)c2)c(-c2ccncc2)n1 [Example 54, 1-(3-(1-ethyl-3-(pyridin-4-yl)-1H-pyrazol-4-yl)phenyl)-3-(4-(ethylsulfonyl)phenyl)urea] | ≤ 0.1 µM | – | 1 to 10 µM
22 | CCn1cc(-c2cccc(NC(=O)Nc3cccc(S(C)(=O)=O)c3)c2)c(-c2ccncc2)n1 [Example 55, 1-(3-(1-ethyl-3-(pyridin-4-yl)-1H-pyrazol-4-yl)phenyl)-3-(3-(methylsulfonyl)phenyl)urea] | ≤ 0.1 µM | – | > 10 µM
23 | CCn1cc(-c2cccc(NC(=O)Nc3ccc(S(=O)(=O)NC)cc3)c2)c(-c2ccncc2)n1 [Example 56, 4-(3-(3-(1-ethyl-3-(pyridin-4-yl)-1H-pyrazol-4-yl)phenyl)ureido)-N-methylbenzenesulfonamide] | ≤ 0.1 µM | – | > 10 µM
24 | CCn1cc(-c2cccc(NC(=O)Nc3ccc(OC)cc3)c2)c(-c2ccncc2)n1 [Example 57, 1-(3-(1-ethyl-3-(pyridin-4-yl)-1H-pyrazol-4-yl)phenyl)-3-(4-methoxyphenyl)urea] | ≤ 0.1 µM | – | ≤ 0.1 µM
25 | CCn1cc(-c2cccc(NC(=O)Nc3ccc(S(=O)(=O)N4CCOCC4)cc3)c2)c(-c2ccncc2)n1 [Example 59, 1-(3-(1-ethyl-3-(pyridin-4-yl)-1H-pyrazol-4-yl)phenyl)-3-(4-(morpholinosulfonyl)phenyl)urea] | ≤ 0.1 µM | – | > 10 µM
26 | CCn1cc(-c2cccc(N(O)C(=O)Nc3ccc(C(F)(F)F)cc3)c2)c(-c2ccncc2)n1 [Example 63, 1-(3-(1-ethyl-3-(pyridin-4-yl)-1H-pyrazol-4-yl)phenyl)-1-hydroxy-3-(4-(trifluoromethyl)phenyl)urea] | ≤ 0.1 µM | – | 1 to 10 µM
